PMC10102062, “Effects of DPTQ, a novel positive allosteric modulator of the dopamine D1 receptor, on spontaneous eye blink rate and spatial working memory in the nonhuman primate” (Psychopharmacology, 2023)

Experiments:
rhesus monkeys = assay: Spontaneous eye blink rate, cumulative dosing; type: in vivo, rhesus monkey
Excerpt: Eleven 5–6-year-old, male rhesus monkeys (Chengdu Ping, An Animal Breeding and Research Base, Sichuan Province, China) with an average weight of 4.83 kg were included in the study. The animals were randomly divided into three groups, DPTQ higher cumulative dose group (n = 4); DPTQ lower cumulative dose group (n = 3); and vehicle (20% Captisol (CyDex Pharmaceuticals, Inc., KS) in NaPO4 buffer) group (n = 4). The D1 agonist SKF82958 was included as a positive control; the results for this compound (not shown here) were recently published together with data for a different D1PAM (DETQ, see Bruns et al. [2018]). The D1 selective antagonist SCH39166 hydrobromide (Cat No.: 2299, Batch No.: 3A/129719) was purchased from Tocris, MN, and was prepared in Millipore pure water with the injection volume 0.2 ml/kg. The D1 antagonist was dosed 15 min before vehicle or DPTQ (n = 4 animals per group).
Spontaneous eye blinking rate was measured during observational experiments conducted in a specially constructed monkey chair (Mason et al. [2019]). A U-shaped neck plate that helped to fixate the orientation of the head was used to facilitate observation of eye blink rate response. A compact video camera (Panasonic/wv-cp480/CH) on a tripod was positioned in front of the seated monkey. Two camera images were combined by video collector (Color QUAD system) and transferred to the EthoVision software (Noldus, Leesburg, VA) on the computer for on-line viewing and recording.
Two weeks before testing, monkeys were trained daily to sit in the monkey chair for two 2-h periods with food reward. During post-training test sessions conducted between 9:00 am and 4:30 pm every day, each monkey was studied for nine consecutive 15-min components. Each 15-min block consisted of a 10-min habituation period followed by a 5-min period during which eye blinking was counted. […] Observers blind to the treatment conditions later scored each 5-min videotaped session. An eye blink was defined as a visible, rapid opening and closing of the eyelid. Two observers independently confirmed the measurement with reliability > 90%.
The effects of different D1 ligands on spontaneous eye blink rate were studied by a cumulative dosing procedure (Jutikiewicz and Bergman 2004). Active compound or vehicle (Captisol 20% w/v NaPO4 buffer) was administered after obtaining two baseline eye blink recordings. The ligand was given in random order to different monkeys of each group as described above. To study dose response and time course, incremental doses of DPTQ were administrated at the end of 15-min components of each test session.
DPTQ (free base, see Hao et al. [2019]) was supplied by Eli Lilly Company. Captisol (Lot No.: NC-04A-05034) was prepared as follows: Captisol 20% w/v NaPO4 buffer 25 mM, pH 8. The injection volume for DPTQ was 0.5 ml/kg IM. DPTQ at 0.1 mg/kg, 0.5 mg/kg, and 1 mg/kg were dosed as clear solution, while the 5 mg/kg and 10 mg/kg doses were formulated as fine suspensions. The above vehicle solution was stored at 4℃ in a refrigerator and restored to room temperature before use. When preparing DPTQ fresh daily, a portion of the vehicle (20% Captisol) was added to the compound and stirred to wet, followed by addition of the remainder of the vehicle and mixing until the solution became homogeneous. The suspension was then sonicated on an ice bath for 40 min to reduce particle size. Animals were dosed while in the chair.
Results for each monkey were expressed as the rate of eye blinking (blinks per minute) averaged over each 5-min testing epoch. The effects of vehicle and D1 PAM on eye blinking were averaged for each group of monkeys and expressed as mean ± SE. The effects of DPTQ and vehicle were analyzed with two-way ANOVA (D1 PAM and time) followed by Bonferroni post hoc test (GraphPad Prism, San Diego CA).

[1] = set-up: method as in Hao et al. [2019]; details: after systemic dosing; ref Hao et al. [2019]; cited from earlier work
D2 receptor = D2 receptor (Homo sapiens, UniProt P14416); assay: Broad screening binding study with 3[H]-raclopride; details: 3[H]-raclopride as ligand; unpublished findings
Sequence of D2 receptor (P14416 whole entry): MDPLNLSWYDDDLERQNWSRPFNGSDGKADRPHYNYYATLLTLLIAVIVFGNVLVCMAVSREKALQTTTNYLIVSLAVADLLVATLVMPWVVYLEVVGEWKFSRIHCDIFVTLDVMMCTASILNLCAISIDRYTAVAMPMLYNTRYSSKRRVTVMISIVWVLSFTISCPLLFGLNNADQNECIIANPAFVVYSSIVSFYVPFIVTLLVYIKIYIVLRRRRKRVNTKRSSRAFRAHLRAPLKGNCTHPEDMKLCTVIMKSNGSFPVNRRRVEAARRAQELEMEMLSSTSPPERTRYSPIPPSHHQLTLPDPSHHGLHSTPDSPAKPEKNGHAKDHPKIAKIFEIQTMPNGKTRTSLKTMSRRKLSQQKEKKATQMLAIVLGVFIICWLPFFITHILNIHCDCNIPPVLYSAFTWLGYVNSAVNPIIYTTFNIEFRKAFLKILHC

## C[C@H]1c2cccc(CC(C)(C)O)c2C[C@H](CO)N1C(=O)Cc1c(Cl)cccc1Cl [DPTQ]
Rhesus monkeys; DPTQ 0.5, 5, 10 mg/kg cumulative, SCH39166 0.03 mg/kg IM 15 min before
  Increase in eye blink rate after SCH39166 pretreatment: small, non-significant
Rhesus monkeys; both high and lower cumulative doses, clear effect only at higher dose at 30 min
  Oral movement: some degree of oral movement such as tongue protrusion
Rhesus monkeys; higher cumulative dose 0.5, 5 and 10 mg/kg IM, at 30, 45, 60 and 75 min
  Spontaneous eye blink rate vs vehicle: significant increases
Rhesus monkeys; lower cumulative dose 0.1, 1 and 5 mg/kg IM, only at 45 and 60 min
  Spontaneous eye blink rate vs vehicle: small but significant
[1]
  Brain penetration: acceptable brain penetration
D2 receptor
  Ki: > 5.6 µM
